In ChEMBL document CHEMBL5154933, “Development of Lipo-γ-AA Peptides as Potent Antifungal Agents” (J Med Chem, 2022):
Activity calls are given as the source filed them.

Assays:
Cryptococcus neoformans [1] = assay: Antifungal activity against Cryptococcus neoformans H99 assessed as fungal growth inhibition by broth microdilution assay; type: functional
Cryptococcus neoformans [2] = assay: Antifungal activity against Cryptococcus neoformans 5-FC assessed as fungal growth inhibition by broth microdilution assay; type: functional
[3] = tested on: Cryptococcus deuterogattii; assay: Antifungal activity against Cryptococcus gattii VGII R265 assessed as fungal growth inhibition by broth microdilution assay; type: functional, Cryptococcus gattii species complex
Candida albicans [4] = assay: Antifungal activity against Candida albicans SC5314 assessed as fungal growth inhibition by broth microdilution assay; type: functional
Candida albicans [5] = assay: Antifungal activity against Candida albicans CARG5 assessed as fungal growth inhibition by broth microdilution assay; type: functional
Candida albicans [6] = assay: Antifungal activity against Candida albicans CA17 assessed as fungal growth inhibition by broth microdilution assay; type: functional
Candida albicans [7] = assay: Antifungal activity against Candida albicans 28A assessed as fungal growth inhibition by broth microdilution assay; type: functional
Candida parapsilosis = assay: Antifungal activity against Candida parapsilosis ATCC 22019 assessed as fungal growth inhibition by broth microdilution assay; type: functional; details: Lodderomyces parapsilosis
Pichia kudriavzevii = assay: Antifungal activity against Candida krusei ATCC6258 assessed as fungal growth inhibition by broth microdilution assay; type: functional
Mucor racemosus [8] = assay: Antifungal activity against Mucor racemosus MZ140 assessed as fungal growth inhibition by broth microdilution assay; type: functional
Mucor racemosus [9] = assay: Antifungal activity against Mucor racemosus R715 assessed as fungal growth inhibition by broth microdilution assay; type: functional
Aspergillus fumigatus [10] = assay: Antifungal activity against Aspergillus fumigatus AF293 assessed as fungal growth inhibition by broth microdilution assay; type: functional
Aspergillus fumigatus [11] = assay: Antifungal activity against Aspergillus fumigatus shjt40 assessed as fungal growth inhibition by broth microdilution assay; type: functional
[12] = Hemolytic activity in human RBC incubated for 1 hr by microplate reader method; type: toxicity, cell-based, Erythrocyte; details: red blood cells (erythrocytes)
[13] = Selectivity ratio of HC50 for hemolytic activity in human RBC to MIC for antifungal activity against Cryptococcus neoformans H99; type: toxicity; details: red blood cells (erythrocytes)
[14] = Selectivity ratio of HC50 for hemolytic activity in human RBC to MIC for antifungal activity against Cryptococcus neoformans 5-FC; type: toxicity; details: red blood cells (erythrocytes)
[15] = Selectivity ratio of HC50 for hemolytic activity in human RBC to MIC for antifungal activity against Cryptococcus gattii R265; type: toxicity; details: red blood cells (erythrocytes)
[16] = Selectivity ratio of HC50 for hemolytic activity in human RBC to MIC for antifungal activity against Candida albicans SC5314; type: toxicity; details: red blood cells (erythrocytes)
[17] = Selectivity ratio of HC50 for hemolytic activity in human RBC to MIC for antifungal activity against Candida albicans CARG5; type: toxicity; details: red blood cells (erythrocytes)
[18] = Selectivity ratio of HC50 for hemolytic activity in human RBC to MIC for antifungal activity against Candida albicans CA17; type: toxicity; details: red blood cells (erythrocytes)
[19] = Selectivity ratio of HC50 for hemolytic activity in human RBC to MIC for antifungal activity against Candida albicans 28A; type: toxicity; details: red blood cells (erythrocytes)
[20] = Selectivity ratio of HC50 for hemolytic activity in human RBC to MIC for antifungal activity against Candida parapsilosis ATCC 22019; type: toxicity; details: red blood cells (erythrocytes)
[21] = Selectivity ratio of HC50 for hemolytic activity in human RBC to MIC for antifungal activity against Candida krusei ATCC6258; type: toxicity; details: red blood cells (erythrocytes)
[22] = Selectivity ratio of HC50 for hemolytic activity in human RBC to MIC for antifungal activity against Mucor racemosus MZ140; type: toxicity; details: red blood cells (erythrocytes)
[23] = Selectivity ratio of HC50 for hemolytic activity in human RBC to MIC for antifungal activity against Mucor racemosus R715; type: toxicity; details: red blood cells (erythrocytes)
[24] = Selectivity ratio of HC50 for hemolytic activity in human RBC to MIC for antifungal activity against Aspergillus fumigatus AF293; type: toxicity; details: red blood cells (erythrocytes)
[25] = Selectivity ratio of HC50 for hemolytic activity in human RBC to MIC for antifungal activity against Aspergillus fumigatus shjt40; type: toxicity; details: red blood cells (erythrocytes)
Cell membrane [26] = assay: Induction of membrane permeabilization in Candida albicans SC5314 assessed as distruption of fungal cell membrane by measuring PI positive cells at 8 times MIC measured after 1 hrs by propidium iodide and DAPI staining based fluorescence microscopic analysis; type: subcellular
[27] = Toxicity against Galleria mellonella larva infected with Candida albicans SC5314 assessed as increase in survival rate at 8 mg/kg measured for 14 days; type: organism-based; details: in vivo, 336 h, time 14 day
Candida albicans [28] = assay: Potentiation of antifungal activity against fluconazole-sensitive Candida albicans YEM12 overexpressing efflux pump MDR1 gene assessed as fold reduction in fluconazole MIC at 1 ug/ml incubated for 24 hrs by checkerboard broth microdilution assay; type: functional; details: dose 1 µg/ml
Candida albicans [29] = assay: Fungicidal activity against Candida albicans SC5314 assessed as fungal growth inhibition incubated for 24 hrs by resazurin dye based assay; type: functional
[30] = Cytotoxicity against HEK293T cells measured after 48 hrs by CCK8 assay; type: toxicity, cell-based, HEK-293T; details: human
Candida albicans [31] = assay: Fungicidal activity against Candida albicans SC5314 at 8 times MIC50 measured after 10 mins by time-kill assay; type: functional, organism-based
Cryptococcus neoformans [32] = assay: Fungicidal activity against Cryptococcus neoformans H99 at 4 times MIC50 measured after 10 to 25 mins by time-kill assay; type: functional, organism-based; details: time 10-25 min
Candida albicans [33] = assay: Synergistic antifungal activity against fluconazole-resistant Candida albicans CARG5 assessed as fractional inhibitory concentration index incubated for 24 hrs by checkerboard broth microdilution assay; type: functional
Candida albicans [34] = assay: Synergistic antifungal activity against fluconazole-resistant Candida albicans CARG5 assessed as reduction in fluconazole MIC at 1 microg/ml incubated for 24 hrs by checkerboard broth microdilution assay ( Rvb = > 128 microg/ml); type: functional; details: dose 1 µg/ml
Candida albicans [35] = assay: Potentiation of antifungal activity against fluconazole-sensitive Candida albicans YEM13 overexpressing efflux pump MDR1 gene assessed as fold reduction in fluconazole MIC at 1 ug/ml incubated for 24 hrs by checkerboard broth microdilution assay; type: functional; details: dose 1 µg/ml
Cell membrane [36] = assay: Induction of membrane permeabilization in Candida albicans SC5314 assessed as damage and rupture of fungal cell membrane at 8 times MIC incubated for 4 hrs by scanning electron microscopic analysis; type: subcellular
Candida albicans [37] = assay: Induction of reactive oxygen species generation in Candida albicans SC5314 assessed as increase in fluorescence intensity incubated for 1 hr by DCF-DA staining based method; type: functional, organism-based; details: DDE = dose-dependent effect
Candida albicans [38] = assay: Increase in intracellular fluconazole accumulation in fluconazole-resistant Candida albicans CARG5 at 1 ug/ml incubated for 1 hr by fluorescence based analysis; type: functional, cell-based; details: dose 1.0 µg/ml
Candida albicans [39] = assay: Effect on efflux pump function in Candida albicans CARG5 assessed as increase in Nile red fluorescence at 1 ug/ml incubated for 1 hr by FACScan flow cytometer analysis; type: functional; details: dose 1.0 µg/ml
Candida albicans [40] = assay: Antifungal activity against Candida albicans CARG5 infected in BALB/c mouse surgical wound model assessed as reduction in fungal burden smeared on wound at 8 mg/kg administered every 12 hrs for 48 hrs in presence of fluconazole; type: functional, organism-based
Cryptococcus neoformans [41] = assay: Fungicidal activity against Cryptococcus neoformans H99 at 8 times of MIC measured after 10 to 25 mins by time-kill assay; type: functional, organism-based; details: time 10-25 min

CCCCCCCCCCCCCCCCCC(=O)N[C@@H](CCCCN)C(=O)N[C@@H](Cc1ccccc1)CN(CC(N)=O)C(=O)CCN
2 µg/mL: MIC50 (Cryptococcus neoformans [1]) | MIC50 (Cryptococcus neoformans [2]) | MIC50 [3] | MIC50 (Candida albicans [4]) | MIC50 (Candida albicans [5]) | MIC50 (Candida albicans [7]) | MIC50 (Candida parapsilosis)
≤ 125: selectivity ratio [13] | selectivity ratio [14] | selectivity ratio [15] | selectivity ratio [16] | selectivity ratio [17] | selectivity ratio [18] | selectivity ratio [19] | selectivity ratio [20] | selectivity ratio [21] | selectivity ratio [22] | selectivity ratio [23] | selectivity ratio [24] | selectivity ratio [25]
8 µg/mL: MIC50 (Aspergillus fumigatus [10]) | MIC50 (Aspergillus fumigatus [11])
4 µg/mL: MIC50 (Candida albicans [6]) | MIC50 (Pichia kudriavzevii)
16 µg/mL: MIC50 (Mucor racemosus [8]) | MIC50 (Mucor racemosus [9])
> 250 µg/mL: HC50 at 1 h [12]

C[C@@H]1[C@H](O)[C@@H](C)/C=C/C=C/C=C/C=C/C=C/C=C/C=C/[C@H](O[C@@H]2O[C@H](C)[C@@H](O)[C@H](N)[C@@H]2O)C[C@@H]2O[C@](O)(C[C@@H](O)C[C@@H](O)[C@H](O)CC[C@@H](O)C[C@@H](O)CC(=O)O[C@H]1C)C[C@H](O)[C@H]2C(=O)O
active: Activity (Cell membrane [26])

CCCCCCCCCCCCCCCC(=O)N[C@@H](CCCCN)C(=O)N[C@@H](Cc1ccccc1)CN(CC(N)=O)C(=O)CN
8 µg/mL: MIC50 (Cryptococcus neoformans [1]) | MIC50 (Cryptococcus neoformans [2]) | MIC50 [3] | MIC50 (Candida albicans [5]) | MIC50 (Candida albicans [6]) | MIC50 (Candida albicans [7])
> 250 µg/mL: HC50 at 1 h [12]
4 µg/mL: MIC50 (Candida albicans [4]) | MIC50 (Candida parapsilosis) | MIC50 (Pichia kudriavzevii)
≤ 125: selectivity ratio [13] | selectivity ratio [14] | selectivity ratio [15] | selectivity ratio [16] | selectivity ratio [17] | selectivity ratio [18] | selectivity ratio [19] | selectivity ratio [20] | selectivity ratio [21]

CCCCCCCCCCCCCCCC(=O)N[C@@H](CCCN)C(=O)N[C@@H](Cc1ccccc1)CN(CC(N)=O)C(=O)CCN
8 µg/mL: MIC50 (Mucor racemosus [8])
4 µg/mL: MIC50 (Mucor racemosus [9]) | MIC50 (Aspergillus fumigatus [10]) | MIC50 (Aspergillus fumigatus [11]) | MFC (Candida albicans [29])
32.2 µg/mL: IC50 at 48 h [30]
> 250 µg/mL: HC50 at 1 h [12]
2 µg/mL: MIC50 (Cryptococcus neoformans [1]) | MIC50 (Cryptococcus neoformans [2]) | MIC50 [3] | MIC50 (Candida albicans [4]) | MIC50 (Candida albicans [5]) | MIC50 (Candida albicans [6]) | MIC50 (Candida albicans [7]) | MIC50 (Candida parapsilosis) | MIC50 (Pichia kudriavzevii)
≤ 125: selectivity ratio [13] | selectivity ratio [14] | selectivity ratio [15] | selectivity ratio [16] | selectivity ratio [17] | selectivity ratio [18] | selectivity ratio [19] | selectivity ratio [20] | selectivity ratio [21] | selectivity ratio [22] | selectivity ratio [23] | selectivity ratio [24] | selectivity ratio [25]
1 µg/mL: MIC50 (Candida albicans [34])
<=0.5: fractional inhibitory concentration index (FICI) (Candida albicans [33])
active: Activity (Candida albicans [31]) | Activity (Cryptococcus neoformans [32]) | Activity (Cell membrane [26]) | Activity (Cell membrane [36]) | Activity (Candida albicans [37]) Dde | Activity (Candida albicans [38]) | Activity (Candida albicans [39]) | Activity (Candida albicans [40]) | Activity (Cryptococcus neoformans [41])
8: fold change (FC) (Candida albicans [35])
Non-Toxic: Activity [27]
2: fold change (FC) (Candida albicans [28])
